The source of these data is PubChem BioAssay AID504702 (Southern Research Specialized Biocontainment Screening …, 2011).

Active and inactive are the calls of the source. How the calls were made is not given here.

Test [1] can be described thus: M. tuberculosis growth inhibition with meropenem, dose response, H37Rv, set 2 (AID 504702).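 Further: growth read by Alamar Blue after 7 days plus overnight incubation.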 The note with it: M. tuberculosis H37Rv with meropenem, growth inhibition.
The test system of test [2] is M. tuberculosis H37Rv with meropenem, growth inhibition. The description is as above. The note with it: for IC90: measured here: IC90 growth with meropenem.

Take `O=C(Cc1ccccc1Cl)Nc1nc2ccccc2[nH]1`: the growth inhibition in test [1] (at 18.8 µM (top of the series)) was -1.22% (inactive). For the same molecule, in test [2], the half-inhibitory concentration (IC50) (commonly the concentration needed to halve the response being measured) was 18.9 µM and the IC90 (commonly the concentration at which the effect reaches the 90% level) was more than 25 µM.

On to `Cc1ccccc1OCC(=O)Nc1ccccc1-c1ccccc1`, for which the growth inhibition in test [1] (at 18.8 µM (top of the series)) is 23.6% (inactive). Also, in test [2], the IC50 is 14.6 µM and the 90% effect concentration (IC90) is more than 25 µM. For the molecule `Cc1ccc(OCC(=O)Nc2ccc(Cl)cc2)c(C)c1`, the growth inhibition in test [1] (at 25 µM (top of the series)) is -3.91% (inactive). In the case of `CCC(CC)c1nnc(NC(=O)c2ccc(N3CCCCC3)c([N+](=O)[O-])c2)s1`, in test [1] (at 25 µM (top of the series)), the growth inhibition was 2.49% (inactive). For `CCOc1ccc2nc(NC(=O)C(C)Oc3ccccc3F)sc2c1` (centres undefined), the growth inhibition in test [1] (at 25 µM (top of the series)) was 2.03% (inactive). For `CCCOc1ccc2c(c1)c(C(C)=O)c(C)n2-c1ccccc1`, the growth inhibition in test [1] (at 25 µM (top of the series)) is 20.4% (inactive). Consider `Cc1ccc2oc(/N=C(\N)NC(=O)c3ccccc3)nc2c1`, for which the growth inhibition in test [1] (at 25 µM (top of the series)) was 5.09% (inactive). For `CCOc1ccc(NC(=O)COc2ccc(C)cc2C)cc1`, in test [1] (at 25 µM (top of the series)), the growth inhibition was -3.23% (inactive). In the case of `O=C(COc1ccccc1Cl)Nc1nc2ccccc2s1`, in test [1] (at 25 µM (top of the series)), the growth inhibition was -4.37% (inactive). With `CC(=O)c1c(C)n(-c2ccc(C)cc2)c2ccc(O)cc12`, the growth inhibition in test [1] (at 25 µM (top of the series)) was -1.38% (inactive).

Consider `Cc1ccc(OCC(=O)Nc2cccc3ncccc23)c(C)c1`, for which the growth inhibition in test [1] (at 25 µM (top of the series)) was 1.76% (inactive). For `Cc1ccccc1OCC(=O)Nc1ncccn1`, the growth inhibition in test [1] (at 25 µM (top of the series)) was 3.04% (inactive). The same measure, in the same setting: then `O=C(Cc1csc(-c2ccccc2F)n1)Nc1nc2ccccc2[nH]1`, with 1.69% (inactive); and `Cc1ccc(OC(C)C(=O)Nc2ncccn2)c(C)c1` (centres undefined), with 3.48% (inactive); and `Cc1cc2cc(Cl)ccc2n1-c1ccccc1`, with 16.5% (inactive).

For the molecule `Cc1cc2cc(F)ccc2[nH]1`, the growth inhibition in test [1] (at 25 µM (top of the series)) is 1.92% (inactive). Still for that read-out and setting: then `Cc1cc2cc(F)ccc2n1-c1ccccc1`, with 5.53% (inactive). For `O=C(CC12CC3CC(CC(C3)C1)C2)NCc1ccc(F)cc1`, the growth inhibition in test [1] (at 18.8 µM (top of the series)) was -0.16% (inactive); in test [1] (at 25 µM (top of the series)) it was -0.41% (inactive). With `CCCN1CC(O)=C(c2nc3ccccc3s2)C1=N`, the growth inhibition in test [1] (at 25 µM (top of the series)) was 1.43% (inactive). In the case of `CCOc1ccc2nc(NC(=O)COc3ccccc3)sc2c1`, the growth inhibition in test [1] (at 25 µM (top of the series)) was -8.57% (inactive).

Regarding `S=C(Nc1ccccc1)Nc1ccc(Cl)cn1`, the growth inhibition in test [1] (at 18.8 µM (top of the series)) was 1.73% (inactive). In test [2], the half-maximal inhibitory concentration (IC50) was 6.64 µM and the IC90 is more than 25 µM. Turning to `Cc1cc(C)c(OCC(=O)Nc2nc3ccc(C)cc3s2)c(C)c1`, in test [1] (at 25 µM (top of the series)), the growth inhibition was -0.38% (inactive). In the case of `COc1ccc2nc(NC(=O)COc3ccccc3)sc2c1`, the growth inhibition in test [1] (at 25 µM (top of the series)) was -1.31% (inactive). Take `O=C(COc1ccccc1)Nc1nc2ccccc2s1`: the growth inhibition in test [1] (at 25 µM (top of the series)) is -1.01% (inactive). Turning to `COc1ccc2nc(NC(=O)c3oc4ccccc4c3C)sc2c1`, the growth inhibition in test [1] (at 25 µM (top of the series)) was -4.34% (inactive). In the case of `O=C(COc1ccc2c3c(c(=O)oc2c1)CCC3)Nc1nc2ccccc2[nH]1`, the growth inhibition in test [1] (at 25 µM (top of the series)) is -4.95% (inactive).

`Cc1ccc2sc(NC(=O)COc3ccccc3)nc2c1C`: in test [1] (at 25 µM (top of the series)), the growth inhibition was 14.4% (inactive). For `c1ccc(-c2cc(N3CCOCC3)nc3ccccc23)cc1`, the growth inhibition in test [1] (at 25 µM (top of the series)) was 6.06% (inactive). In test [2], the IC50 was 10 µM and the concentration for an effect of 90% (IC90) was more than 18.8 µM. With `O=C(COc1cccc2ccccc12)Nc1nc2ccccc2s1`, the growth inhibition in test [1] (at 25 µM (top of the series)) was -6.75% (inactive).

Turning to `Cc1cc2ccccc2[nH]1`, the growth inhibition in test [1] (at 25 µM (top of the series)) is 0.33% (inactive).

On to `COc1cccc(-c2ccc(-c3noc(-c4ccccc4F)n3)c(OC)n2)c1`, for which the growth inhibition in test [1] (at 18.8 µM (top of the series)) is 5.58% (inactive). The IC90 in test [2] is more than 25 µM. As for `COc1ccc2nc(NC(=O)COc3ccccc3C(C)C)sc2c1`, in test [1] (at 25 µM (top of the series)), the growth inhibition is -2.44% (inactive).

As to `Cc1cc(C)c(OCC(=O)Nc2nc3ccccc3[nH]2)c(C)c1`, the growth inhibition in test [1] (at 18.8 µM (top of the series)) was 5.17% (inactive). In addition, in test [2], the 50% inhibitory concentration (IC50) is 5.55 µM and the 90% effect concentration (IC90) was more than 25 µM. In the case of `N/C(=N\c1nc2ccccc2o1)NC(=O)C1CC1`, the growth inhibition in test [1] (at 25 µM (top of the series)) is 9.34% (inactive). As to `CCOC(=O)c1c(C)[nH]c2ccccc12`, in test [1] (at 25 µM (top of the series)), the growth inhibition was -5.69% (inactive). Consider `Cc1ccc(OCC(=O)Nc2cccc3c(NC(=O)COc4ccc(C)cc4C)cccc23)c(C)c1`, for which, in test [1] (at 25 µM (top of the series)), the growth inhibition was -7.16% (inactive). Regarding `COc1ccccc1C(=O)N/C(N)=N/c1nc2ccccc2o1`, the growth inhibition in test [1] (at 25 µM (top of the series)) is 0.18% (inactive). `CC(C)Cn1c2c(c(O)c(C(=O)Nc3nccs3)c1=O)CCCC2`: the growth inhibition is 3.14% (inactive) in test [1] (at 18.8 µM (top of the series)) and -0.17% (inactive) in test [1] (at 25 µM (top of the series)). For `CCOc1ccc2nc(NC(=O)c3cnccn3)sc2c1` the same measures were -0.94% (inactive) and 20.9% (inactive). Consider `CCOc1ccc2[nH]ccc2c1`, for which the growth inhibition in test [1] (at 25 µM (top of the series)) was 2.77% (inactive). As to `CCOc1ccc2c(ccn2-c2ccccc2)c1`, the growth inhibition in test [1] (at 25 µM (top of the series)) is -1.15% (inactive). On to `COc1ccc2nc(NC(=O)COc3ccc(C)cc3)sc2c1`, for which the growth inhibition in test [1] (at 25 µM (top of the series)) was -3.26% (inactive). On the same count and under the same terms, next, `O=C(Nc1nc2ccccc2[nH]1)c1cc2cc(Br)ccc2o1`: -2.41% (inactive); `CC(Oc1ccccc1)C(=O)Nc1nc2ccc(S(C)(=O)=O)cc2s1` (centres undefined): -1.72% (inactive); `Cc1ccc(C(C)C)c(OCC(=O)Nc2nc3ccccc3s2)c1`: -4.96% (inactive).
